# In patent US20240041830A1, “CIRCULATING BIOMARKERS OF RESPONSE TO PD-1/PD-L1 BLOCKADE AND GSK-3 INHIBITION” (Brown University, priority 2022, published 2024):
# Key:
# NK-92 [1] = test: Western blot analysis; format: cell-based, human
# Experimental: (§1) Western blot analysis. Cells were plated in a 6-well plate and incubated overnight before the spent media was replaced with drugged media. Drug treatment lasted for indicated durations. Protein was extracted using radioimmunoprecipitation (RIPA) assay buffer (Cat #R0278, Sigma-Aldrich, St. Louis, MO, USA) containing cOmplete™, Mini, EDTA-free Protease Inhibitor Cocktail (Cat #4693159001, Roche, Basel, Switzerland) from sub-confluent cells. Denaturing sample buffer was added, samples were boiled at 95° C. for ten minutes, and an equal amount of protein lysate was electrophoresed through NuPAGE™ 4 to 12%, bis-Tris, 1.5 mm, Mini Protein Gels (Invitrogen, Waltham, MA, USA) then transferred to PVDF membranes. The PVDF membrane was blocked with 5% non-fat milk (Sigma-Aldrich, St. Louis, MO, USA) in 1× TTBS. Primary antibodies were incubated with the transferred PVDF membrane in blocking buffer at 4° C. overnight. Secondary antibodies included Goat anti-Rabbit IgG (H+L) Secondary Antibody, HRP (Cat #31460, Invitrogen, Waltham, MA, USA), and Goat anti-Mouse IgG (H+L) Secondary Antibody, HRP (Cat #31430, Invitrogen, Waltham, MA, USA). The signal was detected using Pierce™ ECL Western Blotting Substrate (Cat #32106, Thermo Scientific, Waltham, MA, USA) and a Syngene Imaging System (RRID: SCR_015770).
# Because of the differential impact of elraglusib on tumor and immune cells that the inventors observed via Western blot, the inventors compared the levels of another survival protein Mcl-1 in NK-92 natural killer cells.
# Saos-2 osteosarcoma = test: Western blot analysis; format: cell-based; details: IC50, 48 hours
# Experimental: as §1
# (§2) Saos-2 osteosarcoma and 93T449 liposarcoma cell lines were pretreated at IC50 with elraglusib. The cells were harvested for Western blot analysis after 48 hours of treatment. Both cancer cell lines as well as TALL-104 T-cells and NK-92 NK cells were treated with 0.5 μM elraglusib for twenty-four hours and harvested for Luminex cytokine profiling.
# 93T449 liposarcoma = test: Western blot analysis; format: cell-based; details: IC50, 48 hours
# Experimental: as §1, §2
# TALL-104 [2] = test: Western blot analysis; format: cell-based, human; details: as treatment duration increased (0-72 hours)
# Experimental: as §1, with “Secondary antibodies included Goat anti-Rabbit IgG (H+L) Secondary Antibody, HRP (Cat #31460, Invitrogen, Waltham, MA, USA), and Goat anti-Mouse IgG (H+L) Secondary Antibody, HRP (Cat #31430, Invitrogen, Waltham, MA, USA).” left out
# Elraglusib enhances immune cell effector function. the inventors next analyzed immune cell lines (TALL-104, NK-92) using western blot analysis.
# TALL-104 [3] = test: microarray analysis; format: cell-based, human; details: 1 μM, 24 hours, vs untreated
# Experimental: Microarrays. A total of 0.5×10^6 tumor cells (HCT-116, HT-29, KM12C) were plated in a 6-well plate and allowed to adhere overnight before 24-hour treatment, as indicated. Then, 1×10^6 immune cells (NK92, TALL-104) were plated and treated with elraglusib as indicated for twenty-four h. RNA was isolated from cell pellets in batches of six using a RNeasy Plus Mini Kit (Cat #74134, Qiagen, Hilden, Germany). Acceptable RNA concentration and quality were verified with Nanodrop and Bioanalyzer measurements. GeneChip™ Human Transcriptome Array 2.0 assays were conducted according to manufacturer instructions in two batches using randomized samples to limit batch effects (Cat #902162, Applied Biosystems, Waltham, MA, USA). Applied Biosystems Transcriptomic Analysis Console (TAC) software (RRID: SCR_016519) was used to calculate fold changes in gene expression relative to the untreated control cells. Values were considered statistically significant for p values<0.05.
# Microarray analysis was used to obtain insights into gene expression changes in immune cell lines post-GSK-3 inhibition with elraglusib. Immune cell lines (TALL-104, NK-92) were treated with elraglusib at IC50 concentrations or DMSO as vehicle control for twenty-four hours and treated versus untreated samples were compared in triplicate using microarray analysis. FIG. 11. Results were calculated using a fold-change (FC) cutoff of >1.5, <−1.5, and a minimum p-value of <0.05. NK-92 cells had sixty-one differentially expressed genes post-treatment (FIG. 3D). the inventors observed an increase in genes that promote immune cell proliferation (TNFSF14, RAB38) and control immune cell adhesion and migration (WNK1) post-elraglusib treatment.
# TABLE 12 description. TALL-104 immune cell microarray analysis. TALL-104 immune cells were treated with 1 μM elraglusib for 24 hours and treated versus untreated control samples were compared in triplicate via microarray analysis (N=3). Table showing differentially expressed genes of interest with their corresponding fold changes, p values, descriptions, and functions. Genes are ordered by fold change and were calculated using a fold change cutoff of >1.5, <−1.5, and a minimum p value of <0.05.
# TALL-104 [4] = test: 10× single-cell sequencing; format: cell-based, human; details: 1 μM, twenty-four hours vs DMSO
# Experimental: (§3) Single-cell RNA sequencing. Single cells were captured and 3′ single-cell gene expression libraries were conducted (Next GEM v3.1) using the 10× Genomics Chromium system by SingulOmics (SingulOmics, New York, NY, USA). Gene expression libraries were sequenced with ˜200 million PE150 reads per sample on Illumina (RRID: SCR_016387) NovaSeq (Illumina, Inc., San Diego, CA, USA). After sequencing, clean reads were then analyzed with human reference genome GRCh38 using Cell Ranger v6.1.2 (RRID: SCR_017344, 10× Genomics, Pleasanton, CA, USA). Data were analyzed and visualized using Loupe Browser (RRID: SCR_018555, 10× Genomics, Pleasanton, CA, USA).
# (§4) To determine if there was any heterogeneity in response to drug treatment, the inventors employed a 10× single-cell sequencing analysis on both immune cell lines (TALL-104, NK-92) treated with low-dose 1 μM elraglusib or vehicle control (DMSO) for twenty-four hours. Samples clustered by cell type when aggregate data were visualized using a t-SNE plot (FIG. 3G). […] The inventors noted an increase in immune cell attractant CCL4 in the NK-92 cells and an increase in immune cell chemoattractant CXCR4 in the TALL-104 cells.
# NK-92 [5] = test: 10× single-cell sequencing; format: cell-based, human; details: 1 μM, twenty-four hours vs DMSO
# Experimental: as §3, §4
# [6] = immune cells, cell line not given
smiles,measurement,setting,value
Cn1cc(C2=C(c3coc4ccc(F)cc34)C(=O)NC2=O)c2cc3c(cc21)OCO3 [elraglusib],NF-κB-inducing kinase (NIK) expression,NK-92 [1]; [6],increases
same,Survivin expression,NK-92 [1]; [6],increases
same,Mcl-1 protein expression,NK-92 [1]; through the 72-hour endpoint,did not observe a significant decrease
same,cPARP,Saos-2 osteosarcoma,increase
same,PD-L1 expression,Saos-2 osteosarcoma; cell line not given,increase
same,cPARP,93T449 liposarcoma,increase
same,PD-L1 expression,93T449 liposarcoma; cell line not given,increase
same,Bcl-2 expression,TALL-104 [2],did not notice significant changes
same,NF-κB expression,TALL-104 [2],did not notice significant changes
same,ACVR1B Fold Change,TALL-104 [3],−1.61
same,BCL2A1 Fold Change,TALL-104 [3],1.63
same,CAMK1D Fold Change,TALL-104 [3],−2.5
same,CCL3 Fold Change,TALL-104 [3],1.52
same,CCR8 Fold Change,TALL-104 [3],−2.14
same,CD84 Fold Change,TALL-104 [3],−1.53
same,CKS1B Fold Change,TALL-104 [3],1.6
same,DUSP6 Fold Change,TALL-104 [3],−1.66
same,HSPA1A Fold Change,TALL-104 [3],−1.63
same,KIF7 Fold Change,TALL-104 [3],1.56
same,ORAI3 Fold Change,TALL-104 [3],1.51
same,PPARA Fold Change,TALL-104 [3],−1.54
same,PTPN3 Fold Change,TALL-104 [3],−1.56
same,PTPN14 Fold Change,TALL-104 [3],−1.62
same,RNY4 Fold Change,TALL-104 [3],2.19
same,RNY5 Fold Change,TALL-104 [3],1.66
same,STX19 Fold Change,TALL-104 [3],1.58
same,UBE3A Fold Change,TALL-104 [3],−1.73
same,VAMP8 Fold Change,TALL-104 [3],1.56
same,CD69 expression,TALL-104 [4],increase
same,CHI3L1 expression,TALL-104 [4],decrease
same,CXCR4 expression,TALL-104 [4],increase
same,CCL4 expression,NK-92 [5],increase
same,CD69 expression,NK-92 [5],increase
same,CHI3L1 expression,NK-92 [5],decrease
